In brackets after ≈: the same amount, converted by molar mass. Entries after “also recorded” stand apart in the source; their conditions may differ. Read-outs that look alike come from different tables or passages of the source.
Legend:
8226/I-R myeloma cells = test: MTT growth inhibition, imexon-resistant 8226 myeloma cells; assay type: cell-based, human; details: for Cross-resistance with imexon: 8226 imexon-resistant vs parental; for IC50 / Fold Resistance of IC50 R/IC50 's: Table 5; for IC50: imexon-resistant 8226; for Fold Resistance of IC50 R/IC50 's: imexon-resistant vs sensitive 8226
Procedure: (§1) Microculture Tetrazolium (MTT) Assay for Tumor Cells
(§2) Tumors are disaggregated into single cell suspensions using mechanical, hypoosmotic, and/or enzymatic (trypsin) methods. The cells are plated at a concentration of 3-5×10^4 per […] well into plastic 96-well plates. Growth medium containing 5-10% (vol/vol) heat-inactivated fetal bovine serum and penicillin/streptomycin (both […]) are added prior to incubation at 37° C. for 6 days. Afterwards the medium containing the drug is removed, the cells are centrifuged in fresh medium or phosphate-buffered saline (pH 7.4). A tetrazolium dye, […]-2,5-diphenyl tetrazolium (MTT), is then added. (Mossman, T., J Immunol 65:55-63, 1983.) This dye forms a colored formazan product upon activation by mitochondrial reductases in viable cells. Typically, the formazan product is solubilized in acid-propanol or DMSO. The intensity of the color is proportional to viable cell numbers and this is quantitated by spectrophotometric absorbance at 570 nm on a micro ELISA plate reader. The results are calibrated in % control absorbance from untreated tumor cells. (Alley, et al., Cancer Res 48:589-601, 1988.)
(§3) The following unpublished studies were performed in vitro to develop and characterize a human myeloma cell line with resistance to imexon-induced cytotoxicity. The original (parental) 8226 cell line was developed by Matsuoka, et al. (Matsuoka, et al., Proc Soc Exp Biol Med 125:1246-1250, 1967). It is a lymphoblastoid cell line which stains for lambda light immunoglobulin production. It grows in vitro in suspension culture (non-adherent) and forms tumors when injected into SCID mice. (Skehan, et al., J Natl Cancer Inst 82:1107-1112, 1990.)
(§4) One exciting feature of our novel compounds is, that they work on imexon-resistant cells. An imexon-resistant 8226 myeloma cell line was selected by continuously exposing cells to gradually increasing concentrations of imexon up to 3.25 mg/mL. This cell line has slightly longer cell doubling time than 8226 sensitive cells (24 vs 20 hours). […] The dose response curve for imexon continuous exposure was determined using MTT assay. Each data point represents the mean of three experiments performed in 8 replicates.
(§5) We compared IC50 concentrations and there is a 4-fold resistance observed for the 8226/I-R cell line when the cells were continuously exposed to imexon for […] at 37° C. The degree of resistance was relatively unstable in the absence of the drug, with the resistant cells losing substantial resistance when maintained in imexon-free medium for 20 weeks (FIG. 2).
(§6) IC50 was measured by MTT assay. IC50 refer to the concentration by drug that results in 50% growth inhibition. A minimum of 2 assays were performed for each drug following 250 mg/mL imexon is equivalent to 6.5 cGy radiation in sensitive cells.
(§7) Using the colorimetric microculture tetrazolium (MTT) assay, imexon and 25-related analogs were studied for tumor growth inhibition in vitro. Imexon-induced DNA single strand breaks were assessed by alkaline elution. Cells were exposed to imexon for 1 hour prior to start of experiment. The fraction of ^14 C-labeled DNA retained on the filter is plotted against the time of elution. The cells included parental 8226 myeloma cells and the 8226 imexon-resistant cells exposed to drug (imexon or analog) continuously for 10 days at 37° C. At the end of the exposure period, the cells were analyzed for viability using the formazan-forming tetrazolium dye (MTT) assay.

[1] = tested on: OVCAR-3 ovarian carcinoma cells; test: In vitro antitumor activity, OVCAR-3 ovarian; assay type: cell-based, human; details: OVCAR3 ovarian
Text: (§8) 1) in vitro tumor cell viability assays using MTT and SRB dye reaction endpoints.
(§9) Sulforhodamine B (SRB) Assay for Adherent Tumor Cells
(§10) Sulforhodamine B (SRB) is a protein binding aminoxanthene dye with two sulfonic acid groups. (Lillie, R. D., H. J. Conn's Biological Stains, 9th Ed., Baltimore; Williams & Wilkins, 1977.) It quantitates whole cell protein content by the intensity of dye staining and relates this to the number of viable cells. […] The SRB assay is used for cells which normally adhere to surfaces (in this case plastic culture flasks or petri dishes) as part of their requirement for growth and division in vitro. The SRB assay is currently used by the National Cancer Institute in the anticancer drug screening program. (Skehan, et al., J Natl Cancer Inst 82:1107-1112, 1990; Rubinstein, et al., J Natl Cancer Inst 82:1113-1118, 1990.) Methodologic comparisons have shown that SRB results are linear for the number of tumor cells over a 100-fold range, and for protein content determined by a modified Lowry method or Standard Bradford (Bradford, M., Anal Biochem 72:248-254, 1976) methods. […] (Lillie, R. D., H. J. Conn's Biological Stains, 9th Ed., Baltimore; Williams & Wilkins, 1977.)
(§11) Cell cultures of 10^3 -10^7 cells growing in 96-well plastic microtiter plates are fixed with 50% trichloroacetic acid (TCA) for 30 minutes at 4° C. The cells are then stained with 0.4% (w/v) sulforhodamine B (SRB) dissolved in 1% acetic acid. Unbound dye is removed by 4 washes with 1% acetic acid, and protein-bound dye is extracted with 10 mM unbuffered Tris® base [tris(hydroxymethyl)aminomethane]. The optical density (OD) of this extracted solution is measured at […] in a microtiter plate ultraviolet absorbance detector. Cell viability is expressed as percent of control by dividing the optical densities and multiplying the result by 100.
as §1, §2
(§12) Table 3 gives the potencies of the new aziridine-1-carboxamides in a panel of human and murine tumor cells in culture. The tumor cell lines in this table are selected to represent a range of histological and growth phenotypes. Their characteristics are described below.
5.0 Human OVCAR-3 Ovarian Carcinoma was originally isolated by Hamilton, et al. Experimental model systems of ovarian cancer; applications to the design and evaluation of new treatment approaches. Seminar in Onocology, 11:285-298, 1984, from a patient with progressive adenocarcinoma of the ovary. This patient had relapsed after receiving a combination chemotherapy regimen containing cyclophosphamide, doxorubicin and cisplatin. […] It is also one of the standard human tumor cell lines used for screening new anticancer agents at the NCI. (Alley, et al., Cancer Res 48:589-601, 1988.)

8226/S myeloma cells = test: MTT growth inhibition, parental 8226 myeloma cells; assay type: cell-based, human; details: for IC50: Table 5, Sensitive (parental) 8226; for Antitumor effect: parental and imexon-resistant myeloma cells; for Enhanced potency: decrease in IC50 against myeloma cell growth: compared with imexon; for Potency relative to imexon: myeloma cells
Procedure: as §1, §2, §3, §4, §5, §6, §7

[2] = tested on: MCF-7 breast cancer cells (sens.); test: In vitro antitumor activity, MCF-7 breast (sensitive); assay type: cell-based; details: Homo sapiens, MCF7
Text: as §8, §9, §10, §11, §1, §2, §12
1.1 MCF-7 Breast Cancer: The parental (sensitive) MCF-7 breast cancer is an estrogen-dependent adenocarcinoma originally derived from a pleural effusion in a person with advanced metastatic breast cancer. (Soule, et al., J Natl Cancer Inst 51:1409-1416, 1973.)

[3] = Homo sapiens, OVCAR-3, read-out: IC50

| Structure (SMILES) | Cross-resistance with imexon (8226/I-R myeloma cells) | IC50 (8226/I-R myeloma cells; Homo sapiens, read-out: IC50) [µg/mL] | Fold Resistance of IC50 R/IC50 's (8226/I-R myeloma cells) | IC50 [1, 3] [µg/mL] | IC50 (8226/S myeloma cells; Homo sapiens, read-out: IC50) [µg/mL] | IC50 (8226/I-R myeloma cells) [µg/mL] | IC50 [1] [µg/mL] | IC50 (8226/S myeloma cells) [µg/mL] | Antitumor effect (8226/S myeloma cells) | IC50 [2] [µg/mL] | Enhanced potency: decrease in IC50 against myeloma cell growth (8226/S myeloma cells) [%] | Potency relative to imexon (8226/S myeloma cells) |
| --- | --- | --- | --- | --- | --- | --- | --- | --- | --- | --- | --- | --- |
| CCCCNC(=O)N1CC1C#N (centres unmarked) [AMP 414, 2-Cyanoaziridine-1-(N-butyl)carboxamide] | lack of significant (>50% IC50 change) cross-resistance with imexon | 2.8 (≈ 16.7 µM) | 1.0 | 2 | 2.8 (≈ 16.7 µM) |  |  |  |  |  |  |  |
| N#CC1CN1C(=O)Nc1cccnc1 (centres unmarked) [AMP 421, 2-Cyanoaziridine-1-[N-(3-pyridyl)]carboxamide] | lack of significant (>50% IC50 change) cross-resistance with imexon | 2.8 (≈ 14.9 µM) | 1.3 | 1.9 | 2.2 (≈ 11.7 µM) |  |  |  |  |  |  |  |
| CCOC(=O)c1ccc(NC(=O)N2CC2C#N)cc1 (centres unmarked) [AMP 419, 2-Cyanoaziridine-1-[N-(4-ethoxycarbonylphenyl)]carboxamide] | lack of significant (>50% IC50 change) cross-resistance with imexon |  |  | 1.5 |  |  |  |  |  |  |  |  |
| CC(=O)Oc1ccccc1NC(=O)N1CC1C#N (centres unmarked) [AMP 424, 2-Cyanoaziridine-1-[N-(2-acetoxyphenyl)]carboxamide] |  |  |  |  |  | > 100 | > 10 | > 100 | no antitumor effects even at high concentrations |  |  |  |
| CCOC(=O)CNC(=O)N1CC1C#N (centres unmarked) [AMP 420, 2-Cyanoaziridine-1-[N-(ethoxycarbonyl)methyl]carboxamide] | lack of significant (>50% IC50 change) cross-resistance with imexon | 6 (≈ 30.4 µM) | 1.2 | 10 | 5 (≈ 25.4 µM) |  |  |  |  |  |  |  |
| CCNC(=O)N1CC1C#N (centres unmarked) [AMP 406, 2-Cyanoaziridine-1-(N-ethyl)carboxamide] |  | 3.6 (≈ 25.9 µM) | 1.2 | 2 | 3.1 (≈ 22.3 µM) |  |  |  |  | 4 (≈ 28.7 µM) |  |  |
| N#CC1CN1C(=O)Nc1cccc2ccccc12 (centres unmarked) [AMP 423, 2-Cyanoaziridine-1-[N-(1-naphthyl)]carboxamide] |  | 2.1 (≈ 8.85 µM) | 2.1 | 1.4 | 1 (≈ 4.21 µM) |  |  |  |  |  | > 40 |  |
| CC(=O)c1cccc(NC(=O)N2CC2C#N)c1 (centres unmarked) [AMP 425, 2-Cyanoaziridine-1-[N-(3-acetylphenyl)]carboxamide] | lack of significant (>50% IC50 change) cross-resistance with imexon; also recorded: no significant cross resistance | 2.2 (≈ 9.6 µM) | 1.1 | 2.23 | 1.98 (≈ 8.64 µM) |  |  |  |  |  |  | roughly equal potency to imexon |
| N#CC1CN1C(=O)NC1CCCCC1 (centres unmarked) [AMP 413, 2-Cyanoaziridine-1-(N-cyclohexyl)carboxamide] |  | 19 (≈ 98.3 µM) |  | 5.9 | 7 (≈ 36.2 µM) |  |  |  |  | 2.5 (≈ 12.9 µM) |  |  |
| N#CC1CN1C(=O)Nc1ccc([N+](=O)[O-])cc1 (centres unmarked) [AMP 417, 2-Cyanoaziridine-1-[N-(4-nitrophenyl)]carboxamide] | lack of significant (>50% IC50 change) cross-resistance with imexon; also recorded: no significant cross resistance | 2 (≈ 8.61 µM) | 0.95 | 1.5 | 2.1 (≈ 9.04 µM) |  |  |  |  |  |  | roughly equal potency to imexon |
| CC(C)(C)NC(=O)N1CC1C#N (centres unmarked) [AMP 410, 2-Cyanoaziridine-1-(N-t-butyl)carboxamide] |  | 36 (≈ 215 µM) | 1.8 | 31.1 | 20 (≈ 120 µM) |  |  |  |  | > 10 |  |  |
| N#CC1CN1C(=O)Nc1ccc(Cl)cc1Cl (centres unmarked) [AMP 407, 2-Cyanoaziridine-1-[N-(2,4-dichlorophenyl)]carboxamide] |  | 2.4 (≈ 9.37 µM) | 2.0 | 0.6 | 1.2 (≈ 4.69 µM) |  |  |  |  |  | > 40 |  |
| N#CC1CN1C(=O)NCc1ccccc1 (centres unmarked) [AMP 412, 2-Cyanoaziridine-1-(N-benzyl)carboxamide] | lack of significant (>50% IC50 change) cross-resistance with imexon; also recorded: no significant cross resistance | 2.2 (≈ 10.9 µM) | 1.2 | 1 | 1.8 (≈ 8.95 µM) |  |  |  |  | 1.5 (≈ 7.45 µM) |  | roughly equal potency to imexon |
| N#CC1CN1C(=O)Nc1ccc(S(N)(=O)=O)cc1 (centres unmarked) [AMP 422, 2-Cyanoaziridine-1-[N-(4-sulfamylphenyl)]carboxamide] |  | < 100 |  | 50 | > 100 |  |  |  | no antitumor effects even at high concentrations |  |  |  |

— patent publication US6297230A, “Cyanoaziridines for treating cancer” (priority 2000, dated 2001)
